The source of these data is US8552022B2, “Substituted cyclopropyl compounds, compositions containing such compounds and methods of treatment” (Merck Sharp & Dohme Corp., priority 2009, dated 2013).

For the assay, the target named is T1, GPR119 (UniProt Q8TDV5, S309L, species not given).
T1 sequence (Q8TDV5 1-335 S309L): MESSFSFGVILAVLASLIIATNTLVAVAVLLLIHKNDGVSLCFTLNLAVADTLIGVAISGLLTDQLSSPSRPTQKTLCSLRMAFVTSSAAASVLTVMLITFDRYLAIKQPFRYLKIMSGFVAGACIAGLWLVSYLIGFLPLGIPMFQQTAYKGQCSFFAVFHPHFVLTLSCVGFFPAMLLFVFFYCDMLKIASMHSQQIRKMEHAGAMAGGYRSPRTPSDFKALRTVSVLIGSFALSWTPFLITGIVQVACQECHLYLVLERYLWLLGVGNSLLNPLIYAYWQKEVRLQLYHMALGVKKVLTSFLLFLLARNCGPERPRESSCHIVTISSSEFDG
Nature of the assay: GPR119 signaling, cyclic AMP (cAMP) HTRF assay. Type of assay: cell-based, human (S309L variant) or murine. The settings on record: CHO cells with Gα15 and murine GPR119 or HEK293 Flp-In cells with human GPR119 S309L, read-out: EC50 (agonist activation of GPR119, cAMP). The text has this:
The title compound was synthesized using 2-{2-[1-(5-chloropyrimidin-2-yl)piperidin-4-yl]cyclopropyl}ethyl 4-methylbenzenesulfonate from step 1 of this example by a general procedure analogous that described in Example 59. LRMS calc: 424.9; obs: 425.01 (M+1). Measurement of GPR119Signaling Using a Cyclic AMP (cAMP) Homogenous Time Resolved Fluorescence (HTRF) Assay
Chinese hamster ovary (CHO) cell lines stably transfected with the permissive guanine nucleotide binding protein alpha 15 (Gα15) and murine GPR119 were maintained in DMEM media containing FBS, penicillin-streptomycin, puromycin, and G418 (geneticin). Alternatively, human embryonic kidney (HEK)293 Flp-In cells (Invitrogen, Carlsbad, Calif.) were stably transfected with a human SNP variant (S309L) of GPR119 and maintained in DMEM media containing FBS, penicillin-streptomycin, and hygromycin. Agonist activation of the GPR119 receptor was measured in receptor transfected cells described above, treated with compounds of this invention, using a commercial homogenous time resolved fluorescence (HTRF) kit for measurement of cAMP (CisBio, Bedford, Mass.). The assay was performed in 96-well half-volume plates (murine) or 384-well plates (human) following the manufacturers instructions. Briefly, suspended cells were incubated with a dose titration of test compound at room temperature for 60 min, lysed, and incubated with HTRF reagents for an additional 60 min. The plate was read using an Envision multilabel reader (Perkin Elmer) adjusted to read time resolved fluorescence and the cAMP concentrations were extrapolated from a cAMP calibration curve. […] The concentration of test compound required to stimulate a half-maximal response (EC50), and efficacy as compared to an internal agonist control, was determined from a sigmoidal 4-parameter curve fit of the resulting plot of normalized activity versus compound concentration.
In general, EC50 refers to the concentration at which the effect is half-maximal. As for `O=C1Cc2cc(NCC[C@@H]3C[C@@H]3C3CCN(c4ncc(Cl)cn4)CC3)ccc2N1` [Ex 50, 5-[(2-{(1S,2S)-2-[1-(5-chloropyrimidin-2-yl)piperidin-4-yl]cyclopropyl}ethyl)amino]-1,3-dihydro-2H-indol-2-one], the EC50 was in the range of 10 to 50 nM.
Turning to `Clc1cnc(N2CCC([C@@H]3C[C@H]3CCNc3ccc(-n4cncn4)nc3)CC2)nc1` (single isomer, unassigned) [Ex 62, trans N-(2-{2-[1-(5-chloropyrimidin-2-yl)piperidin-4-yl]cyclopropyl}ethyl)-6-(1H-1,2,4-triazol-1-yl)pyridin-3-amine], the EC50 fell in the range of 10 to 50 nM.
The same measure for `Clc1cnc(N2CCC([C@H]3C[C@H]3CCNc3ccc(-n4ccnn4)cn3)CC2)nc1` [Ex 8, N-(2-{(1S,2S)-2-[1-(5-chloropyrimidin-2-yl)piperidin-4-yl]cyclopropyl}ethyl)-5-(1H-1,2,3-triazol-1-yl)pyridin-2-amine]: less than 10 nM; for `Cc1cc(NCC[C@@H]2C[C@@H]2C2CCN(c3ncc(Cl)cn3)CC2)ncc1NC(=O)C(C)(C)C` [Ex 29, N-{6-[(2-{(1S,2S)-2-[1-(5-chloropyrimidin-2-yl)piperidin-4-yl]cyclopropyl}ethyl)amino]-4-methylpyridin-3-yl}-2,2-dimethyl propanamide]: less than 10 nM.
The same measure for `Cc1cc(NCC[C@@H]2C[C@@H]2C2CCN(c3ncc(Cl)cn3)CC2)cc(C#N)n1` [Ex 22, 4-[(2-{(1S,2S)-2-[1-(5-chloropyrimidin-2-yl)piperidin-4-yl]cyclopropyl}ethyl)amino]-6-methylpyridine-2-carbonitrile]: less than 10 nM; for `Cc1nc(C#N)cc(NCC[C@@H]2C[C@@H]2C2CCN(c3ncc(Cl)cn3)CC2)n1` [Ex 5, 6-[(2-{(1S,2S)-2-[1-(5-chloropyrimidin-2-yl)piperidin-4-yl]cyclopropyl}ethyl)amino]-2-methylpyrimidine-4-carbonitrile]: 10 to 50 nM.
The result for `Cc1cc(NCC[C@@H]2C[C@@H]2C2CCN(c3ncc(Cl)cn3)CC2)cnc1NC(=O)C1(C)CC1` [Ex 39] reads less than 10 nM.
